# Assay results published in patent publication US7928113B2, “Integrin-binding small molecules” (University of Southern California, priority 2005, dated 2011).
# Experiments:
# [1] = system: HEY ovarian cancer cell line; assay: Cytotoxicity MTT assay, HEY; type: cell-based, human; details: Homo sapiens; 20 μM, HEY, 72 h MTT; read-out: % inhibition of cell growth at 20 μM, HEY
# Description: (§1) Cell Culture. Human breast cancer cells (MCF-7, αvβ3—, overexpressed wild-type p53, ER+; MDA-MB 468, p53 mutant, ER+; and MDA-MB-435, αvβ3+, p53 mutant, ER−) and non-small cell lung cancer cells H1975 were obtained from the American Type Cell Culture (Rockville, Md. Q4). The HEY human ovarian carcinoma cell line naturally resistant to cisplatin (CDDP) was kindly provided by Dr. Dubeau (University of Southern California Norris Cancer Center). Cells were maintained as monolayer cultures in RPMI 1640 supplemented with 10% fetal bovine serum (Gemini-Bioproducts, Woodland, Calif.) and 2 mmol/L L-glutamine at 37° C. in a humidified atmosphere of 5% CO2. To remove the adherent cells from the flask for passaging and counting, cells were washed with PBS without calcium or magnesium, incubated with a small volume of 0.25% trypsin-EDTA solution (Sigma, St. Louis, Mo.) for 5 to 10 minutes, and washed with culture medium and centrifuged. All experiments were done using cells in exponential cell growth.
# (§2) Cytotoxicity Assay. Cytotoxicity was assessed by 3-(4,5-dimethylthiazol-2-yl)-2,5-diphenyltetrazolium bromide (MTT) assay as previously described.^41, 54 Briefly, cells were seeded in 96-well microtiter plates and allowed to attach. Cells were subsequently treated with a continuous exposure to the corresponding drug for 72 hours. An MTT solution (at a final concentration of 0.5 mg/mL) was added to each well and cells were incubated for 4 hours at 37° C. After removal of the medium, DMSO was added and the absorbance was read at 570 nm. All assays were done in triplicate. The IC50 was then determined for each drug from a plot of log (drug concentration) versus percentage of cell kill.
# (§3) Cytotoxicity of Selected Compounds in a Panel of Cancer Cell lines. Initially, we tested all compounds in two breast cancer cell lines MDA-MB-435 and MCF7 with high and low αvβ3 expression as well as in HEY ovarian cancer cell line naturally resistant to cisplatin. […] We observed a remarkable specificity for some of the compounds against these cells. […] Considering the fact that αvβ3 mediates migration, attachment and apoptosis of cancer cells, the combination of these novel high affinity antagonists with conventional cytotoxic drugs should show improved therapeutic benefits without additional toxicity.
# (§4) NVX-188 was tested for cytotoxicity by MTT assays in two breast cancer cell lines, MDA-MB-435 with high αvβ3 integrin expression and MCF7 with low αvβ3 integrin expression, and an ovarian cancer cell line, HEY, which was used to test for cell growth inhibition evidence. NVX-188 was further evaluated in a lung cancer cell line, NCI-H1975, and a mouse fibroblast, NIH3T3. NVX-188 was not cytotoxic at the highest dose level tested (20 uM).
# [2] = system: MCF7 breast cancer cell line; assay: Cytotoxicity MTT assay, MCF7; type: cell-based, human; details: Homo sapiens; 20 μM, MCF7, 72 h MTT; read-out: % inhibition of cell growth at 20 μM, MCF7
# Description: as §1, §2, §3, §4
# [3] = system: MDA-MB-435 breast cancer cell line; assay: Cytotoxicity MTT assay, MDA-MB-435; type: cell-based, human; details: Homo sapiens; 20 μM, MDA-MB-435, 72 h MTT; read-out: % inhibition of cell growth at 20 μM, 435
# Description: as §1, §2, §3, §4
# [4] = Cytotoxicity MTT assay, HEY; type: cell-based, human; details: human, HEY ovarian carcinoma cells; HEY, Table 5
# Description: as §1, §2, §3, §4
# [5] = Cytotoxicity MTT assay, MCF7; type: cell-based, human; details: human, MCF-7 breast cancer cells; MCF-7, Table 5
# Description: as §1, §2, §3, §4
# [6] = Cytotoxicity MTT assay, MDA-MB-435; type: cell-based, human; details: human, MDA-MB-435 breast cancer cells; MDA-MB-435, Table 5
# Description: as §1, §2, §3, §4
# [7] = Cytotoxicity MTT assay, NIH3T3; type: cell-based, mouse; details: mouse, NIH3T3 fibroblasts; NIH3T3, Table 5
# Procedure: as §2, §3, §4
# αvβ3 integrin = molecular target: T1, αvβ3 integrin (Homo sapiens, UniProt P05106+P06756); assay: Receptor binding assay, competitive binding with 125I-labeled echistatin on the surface of NCI-H1975 cells; details: 125I-echistatin competition, NCI-H1975 cells; read-out: αvβ3 binding affinity (IC50)
# T1 construct: endogenous in cells; host or cells: NCI-H1975 cells (non-small cell lung cancer), whole cells in suspension
# Procedure: Receptor Binding Assay. […] 96-Well multiscreen DV plate (filter pore size: 0.65 μm, Millipore, Billerica, Mass.) was incubated with ^125I-echistatin (50,000 cpm/well) in the presence of increasing concentrations of αvβ3 antagonists. The total incubation volume was adjusted to 200 μL. After the cells were incubated for 3 h at room temperature, the plate was filtered through multiscreen vacuum manifold and washed twice with cold binding buffer. The hydrophilic PVDF filters were collected, and the radioactivity was determined using NaI(Tl) gamma counter (Packard, Meriden, Conn.). The best-fit IC50 values were calculated by fitting the data by nonlinear regression using GraphPad Prism (GraphPad Software, Inc., San Diego, Calif.). Experiments were carried out with triplicate samples.
# αvβ3 Binding. Receptor binding affinity of all compounds on the surface of non-small cell lung cancer NCI-H1975 cells was determined in competitive binding experiments using ^125I-labeled echistatin as radioligand and the results are presented in Table 3. […] These compounds represent a novel set of antagonists with diverse structural scaffolds. […] This is an important feature considering the highly electrostatic nature of the RGD peptide binding region of αvβ3. The RGD peptide forms strong electrostatic interactions through its two charged ends with αvβ3 in the αvβ3-cyclic RGD peptide complex crystal structure. Compounds AV3, AV27, and AV32 broadly fall into a RGD mimetic antagonist category, since they have a carboxylate group or amine/amide group, at either ends that can establish similar electrostatic interactions with αvβ3. Additionally, presence of several hydrophilic functional groups on these compounds favors their interaction with the highly electrostatic region of the RGD binding site of αvβ3. Given these interesting structural features, we tested additional structurally close analogues of AV27 and AV32. However, substructure search queries using the core scaffolds of these compounds in our in-house databases yield no close analogues. Structure-activity studies around the core scaffolds of these two compounds might be an alternative option to further optimize their binding affinity towards αvβ3. […] We carried out a limited structure-activity relationship (SAR) analysis on compound AV26 by testing compounds AV34-AV38 in our binding assay (Table 3). The substructure search using the core scaffold of AV26 as a search query retrieved few compounds from our in-house database of 359,224 compounds. The analogues AV34-AV38 were purchased from Chemical Diversity (San Diego, Calif.) and screened for their αvβ3 binding affinity. […] Studies are also underway to selectively deliver cytotoxic agents such as paclitaxel to αvβ3 overexpressing cancers through covalent conjugation.
# Receptor binding affinity of NVX-188 was determined through a competitive binding experiment using ^125I-radiolabeled echistatin on NCI-H1975 cells. Increasing concentrations of NVX-188 were added with a fixed amount of echistatin to determine the concentration of NVX-188 that prevents 50% of the echistatin from binding to αvβ3 integrin on the cell surface (i.e., IC50).
# [8] = Cytotoxicity MTT assay, NCI-H1975; type: cell-based, human; details: human, NCI-H1975 non-small cell lung cancer cells; NCI-H1975, Table 5
# Description: as §1, §2, §3, §4
SMILES,inhibition at 20 µM [1] [%],inhibition at 20 µM [2] [%],inhibition at 20 µM [3] [%],IC50 at 72 h [4] [µM],IC50 at 72 h [5] [µM],IC50 at 72 h [6] [µM],IC50 at 72 h [7] [µM],IC50 (αvβ3 integrin) [µM],IC50 at 72 h [8] [µM]
CC1=C(C#N)c2nc(N)c(C#N)c(C)c2/C1=C/c1ccc(-c2ccc(Cl)c(C(=O)O)c2)o1 [AV15],14,14,33,–,–,–,–,–,–
Nc1nc(O)c2nc3c(nc2n1)C(=O)N(c1ccc(C(=O)NC(CCC(=O)O)C(=O)O)cc1)C3 (stereo not drawn) [AV6],0,19,12,–,–,–,–,–,–
Cc1nnc(N/N=C/c2ccc(OCC(=O)O)cc2)nc1O [AV20],0,27,11,–,–,–,–,–,–
CN(C1=NC(=O)/C(=C\c2ccc(OCC(=O)O)cc2)S1)c1ccc(O)cc1 [AV24],19,21,9,–,–,–,–,–,–
CC1=NN(c2ccc(C(=O)O)cc2)C(=O)/C1=C/c1ccc(-c2ccc(S(N)(=O)=O)cc2)o1 [AV19],6,66,30,> 20,19 ± 4,> 20,–,–,–
COc1cc(/C=C2\S/C(=N/c3cccc(C(=O)O)c3)N(C)C2=O)cc(Cl)c1O [AV37],0,9,3,–,–,–,–,–,–
CN(Cc1cnc2nc(N)nc(N)c2n1)c1ccc(C(=O)NC(CCCCN)C(=O)O)cc1 (stereo not drawn) [AV4],0,30,16,–,–,–,–,–,–
CCn1cc(C(=O)O)c(=O)c2cc(F)c(N3CCN(S(=O)(=O)c4ccc(NC(C)=O)cc4)CC3)cc21 [AV22],0,7,25,–,–,–,–,–,–
CCC(=O)Nc1nc(C)c(-c2csc(Nc3cccc(C(=O)O)c3)n2)s1 [AV31],62,44,21,–,–,–,–,–,–
CCC(=O)Nc1ccc(C(=O)Nc2ccc(OCC(=O)O)cc2)cc1 [AV28],34,32,32,–,–,–,–,–,–
O=C(CSc1nnnn1-c1ccc(O)cc1)NCc1cccc(C(=O)O)c1 [AV23],0,34,9,–,–,–,–,–,–
Nc1nc(O)c2nc(CCCNc3ccc(C(=O)NC(CCC(=O)O)C(=O)O)cc3)cnc2n1 (stereo not drawn) [AV3],0,0,0,> 20,> 20,> 20,> 20,0.052,> 20
CC(=O)Nc1nc(O)c2nc(CCN(C)c3ccc(C(=O)O)cc3)cnc2n1 [AV5],0,0,49,–,–,–,–,–,–
